Source: patent US5001156A, “Lipophilic quaternary ammonium salicylates, their use in cosmetics and in dermopharmacy” (priority 1986, dated 1991)

Tested on: Propionibacterium acnes strain ATCC 6919
Assay: Minimal Inhibitory Concentration (MIC) by the dilution method;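 further: MIC reported in µg/ml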
Assay type: cell-based
Details: Propionibacterium acnes ATCC 6919, DMSO

Row | Compound | MIC [µg/mL]
1 | N-benzyl-N,N,N-trimethylammonium 5-decanoylsalicylate [Compound 13] | 3.2
2 | CCCCCCCCCCCC(=O)c1ccc(O)c(C(=O)[O-])c1.C[N+](C)(C)C [Compound 15, N,N,N,N-tetramethylammonium 5-dodecanoylsalicylate] | 2.5
3 | Hexadecyltrimethylammonium stearate [Compound 3, reference compound] | 25
4 | N-methyl-N-octylpiperidinium 5-dodecanoylsalicylate [Compound 22] | 4.9
5 | N-dodecyl-N-methylmorpholinium 5-decanoylsalicylate [Compound 21] | 9
6 | CC(C)(C)CC(C)(C)c1ccc(OCCOCC[N+](C)(C)Cc2ccccc2)cc1.CCCCCCCC(=O)c1ccc(O)c(C(=O)[O-])c1 [Compound 24, benzethonium 5-octanoylsalicylate] | 1.2
7 | CCCCCCCCCCCC(=O)c1ccc(O)c(C(=O)[O-])c1.CCCCCCCCCCCCCCCC[N+]12CCN(CC1)CC2 [Compound 23, 1'-azonia-4'-azabicyclo[2.2.2]octylhexadecane 5-dodecanoylsalicylate] | 1.5
8 | N-hexadecylpyridinium 5-decanoylsalicylate sesquihydrate [Compound 8] | 1.2
9 | N-benzyl-N,N-dimethyl-N-hexadecylammonium 5-octanoylsalicylate [Compound 10] | 0.54
10 | N-hexadecyl-N,N,N-trimethylammonium 5-dodecanoylsalicylate [Compound 6] | 3.2
11 | N-Hexadecyl-N,N,N-trimethylammonium salicylate [Compound 1, reference compound] | 21
12 | N-hexadecyl-N,N,N-trimethylammonium 5-decanoylsalicylate [Compound 5] | 2.3
13 | N-hexadecylpyridinium 5-dodecanoylsalicylate hydrate [Compound 9] | 1.2
14 | CC(C)(C)CC(C)(C)c1ccc(OCCOCC[N+](C)(C)Cc2ccccc2)cc1.CCCCCCCCCCCC(=O)c1ccc([O-])c(C(=O)O)c1 [Compound 25, benzethonium 5-dodecanoylsalicylate] | 2
15 | N-(2-Hydroxyethyl)-N,N,N-trimethylammonium salicylate [Compound 19, reference compound] | > 100
16 | Hexadecyltrimethylammonium laurate [Compound 2, reference compound] | 26
17 | dimethylethyldodecylammonium 5-decanoylsalicylate [Compound 16] | 6.2
18 | N-hexadecyl-N,N,N-trimethylammonium 5-octanoylsalicylate [Compound 4] | 8
19 | N-benzyl-N,N-dimethyl-N-hexadecylammonium 5-decanoylsalicylate [Compound 11] | 1.5
20 | N-hexadecyl-N-methylimidazolinium 5-dodecanoylsalicylate [Compound 20] | 13.5
21 | N-benzyl-N,N-dimethyl-N-hexadecylammonium 5-dodecanoylsalicylate [Compound 12] | 1
22 | trimethyl-(β-hydroxyethyl)ammonium 5-dodecanoylsalicylate [Compound 18] | 4.8
23 | N-hexadecylpyridinium 5-octanoylsalicylate monohydrate [Compound 7] | 2.4
24 | N-hexadecyl-N,N-dimethyl-N-(β-hydroxyethyl)ammonium 5-decanoylsalicylate [Compound 14] | 3.6
25 | trimethyl-(β-hydroxyethyl)ammonium 5-decanoylsalicylate [Compound 17] | 11
